Measurements as given in PMC9611471 (Pharmaceutics, 2022).

What was measured:
[1] = system: A549 cell-induced tumor xenograft; experiment: A549 tumor xenograft in BALB/c nude mice; assay type: in vivo; conditions: vs control group
Experimental: Five-week-old BALB/c-nu/nu male mice were purchased from Orient Bio Inc. (Seongnam, Gyeonggi-do, Korea). The mice were housed in a climate-controlled room (22 ± 2 °C, 50 ± 10% relative humidity) and specific pathogen-free conditions with a 12 h light/dark cycle and adapted for a week with free access to food and water. Cages, bedding, and drinking water were autoclaved and changed regularly. The cancer cell suspension {3 × 10^7 cells/ 150 μL phosphate-buffered saline (PBS)} was inoculated subcutaneously into the right flank. Measurable tumors were found 7–8 days after cell inoculation, and tumors grew in 90% of the injection site two weeks later. The mice were randomly divided into test groups (12 mice per group) when the tumor volume reached 100 mm^2 about two weeks after the inoculation (experimental day 0). The control group (vehicle-treated group) and Compound 4 (5 mg/kg) were administered i.p. 3 times a week. The formulation of Compound 4 was prepared in a mixture of 10% DMSO + 90% PBS. The tumor growth rate and body weights in each of the two groups were measured every three days using a Vernier caliper and a digital weighing balance, respectively. Tumor volume was calculated as l × b^2 × 0.52, where l is the length and b is the width. Four weeks after treatment, blood samples were drawn from the orbital sinus under anesthesia, the mice were sacrificed by cervical dislocation, and the tumors were dissected for further examination.
The paraffin-embedded tumor specimens were deparaffinized with xylene and a series of different alcohol concentrations, rehydrated, and antigen retrieval was carried out with sodium citrate buffer (0.05 M with PH 6). After blocking with 5% BSA, the slides were incubated overnight at 4 °C with KI67 (Cell Signaling Technology, Danvers, MA, USA), Caspase-3 (Abcam, Cambridge, UK), and S1P antibodies (Echelon Biosciences inc, Salt Lake City, UT). The slides were washed with 1× TBST (TBST with PH 8.4) plus 0.5 percent Triton X-100 (Sigma-Aldrich, St. Louis, MO, USA), then secondary antibodies were added in 1:500 ratios (Invitrogen-Alexa Fluor plus 555, 488, and Alexa FluorTM546), and nuclear staining was performed with Hoechst (Invitrogen, Carlsbad, CA, USA), mounted with a flurosave reagent (EMD Millipore Crop, Billerica, MA, USA). Stain sections were observed and photographed using a confocal microscope (Carl-Zeiss-LSM710NLO and LSM780NLO), and results were analyzed using the Carl-Zeiss ZEN2 software and quantification was done by using the ImageJ software, respectively.

[2] = In vitro metabolic stability, rat liver microsomes; assay type: in vitro ADME; conditions: pooled liver microsomes, NADPH, 37 °C, 0 and 30 min
[3] = In vitro metabolic stability, mouse liver microsomes; assay type: in vitro ADME; conditions: pooled liver microsomes, NADPH, 37 °C, 0 and 30 min
[4] = molecular target: T1, SK2 (Homo sapiens, UniProt Q9NRA0); experiment: SK2 activity assay (Adapta screening system); conditions: read-out: SK2 inhibitory efficacy
T1 sequence (Q9NRA0 1-654): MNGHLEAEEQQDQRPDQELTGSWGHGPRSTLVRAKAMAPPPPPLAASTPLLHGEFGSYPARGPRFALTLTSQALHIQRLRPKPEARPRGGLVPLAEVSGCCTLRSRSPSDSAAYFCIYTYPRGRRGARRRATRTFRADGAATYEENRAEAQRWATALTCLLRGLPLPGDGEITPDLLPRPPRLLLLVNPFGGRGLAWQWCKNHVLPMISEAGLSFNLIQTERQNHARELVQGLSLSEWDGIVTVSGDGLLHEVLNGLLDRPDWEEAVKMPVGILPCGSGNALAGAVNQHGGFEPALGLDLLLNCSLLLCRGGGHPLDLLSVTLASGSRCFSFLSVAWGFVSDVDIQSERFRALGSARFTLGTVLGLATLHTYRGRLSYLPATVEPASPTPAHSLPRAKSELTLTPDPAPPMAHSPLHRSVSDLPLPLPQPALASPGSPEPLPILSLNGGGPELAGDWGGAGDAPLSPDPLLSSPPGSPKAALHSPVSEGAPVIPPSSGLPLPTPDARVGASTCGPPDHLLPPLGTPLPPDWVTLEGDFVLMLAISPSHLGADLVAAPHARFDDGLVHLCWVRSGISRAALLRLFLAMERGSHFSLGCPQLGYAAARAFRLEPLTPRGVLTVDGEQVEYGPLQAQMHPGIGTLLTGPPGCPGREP

[5] = system: A549 cells; experiment: Mitochondrial membrane potential measurement (JC-10); assay type: cell-based, human; conditions: 10 μM, 24 h
Experimental: To access the mechanism of cell death, Mitochondrial Membrane Potential (MMP) was performed using JC-10 cationic dye. […] Cells were collected, and 20 μM JC-10 dye prepared in HBSS solution (0.14 M NaCl, 0.005 M KCl, 0.001 M CaCl2, 0.005 M MgSO4-7H2O, 0.0004 M MgSO4-6H2O, 0.0003 M Na2HPO4-2H2O, 0.0004 M KH2PO4, 0.006 M D-glucose, 0.004 M NaHCO3, 0.002 M HEPES, and 0.02% Pluronic® F-127) was added to the cell for 30 min and mixed. The samples were protected from light and measured by using the MACS Quant Analyzer 10 Flow cytometer.

[6] = immunohistochemistry, 5 mg/kg i.p.

**Q.** With `Cc1cc(CN(Cc2cc(C)cc(CS(=O)(=O)c3ccccc3)c2)c2ccc(CCN3CCC(CO)CC3)cc2)cc(CS(=O)(=O)c2ccccc2)c1` [Compound 4, (1-(4-(Bis(3-methyl-5-((phenylsulfonyl)methyl)benzyl)amino)phenethyl)piperidin-4-yl)methanol] as the compound, how does the tumor volume ([1]; 5 mg/kg i.p. 3 times a week, 29 days) read?
**A.** statistically significant inhibitory effect on the tumor volume

**Q.** And the tumor weight ([1]; 5 mg/kg i.p. 3 times a week, day 29)?
**A.** significant decrease in the tumor weight

**Q.** And the weight of animals ([1]; 5 mg/kg i.p. 3 times a week)?
**A.** no difference in the weight

**Q.** What about the “KI67 level in tumor sections (proliferation marker)” value [1, 6] of the same compound?
**A.** decrease in the level of KI67

**Q.** And the “S1P levels in the tumor section” value [1, 6]?
**A.** decreased

**Q.** And the “caspase-3 level in tumor sections (apoptosis marker)” value [1, 6]?
**A.** increased

**Q.** And the “MS RLM” value [2]?
**A.** 22.9

**Q.** And the “MS MLM” value [3]?
**A.** 38.5

**Q.** And the inhibition at 10 µM [4]?
**A.** 49%

**Q.** What about the “change in mitochondrial membrane potential (MMP), JC-10” value [5] of the same compound?
**A.** significantly increased compared to that after treatment with PF-543
